In patent publication US12018267B2, “Plants having increased tolerance to herbicides” (BASF SE, priority 2015, dated 2024):

Key:
[1] = system: O. sativa Volano-M3-CESA1 and CESA3 mutants; experiment: Greenhouse foliar application, crop injury on tilled Rice M3 generation cellulose synthase mutants (Table E10-1); format: in vivo, Oryza sativa; conditions: foliar application 250 g ai/ha
From the text: (§1) Oryza sativa M2 Volano is a cellulose biosynthesis inhibitor susceptible rice risotto population that was subjected to sodium azide seed mutagenesis but was not tilled nor selected for CESA mutations. O. sativa Volano-M3-CESA1 and CESA3 mutants were selected from a subpopulation of O. sativa M2 Volano by sequencing CESA gene sequences in M2 plants and maintaining (producing seed through selfing) those individuals containing key mutations in these genes. The tolerance of the M3 CESA1 and CESA3 mutants was assessed using 6-(1-fluorocyclopentyl)-N2-(2,3,5,6-tetrafluorophenyl)-1,3,5-triazine-2,4-diamine, together with 1.0% DASH® EC adjuvant (BASF). The tolerance of M4 CESA1 and CESA3 mutants was assessed using 6-cyclopentyl-N4-(2,3,4,5,6-pentafluorophenyl)-1,3,5-triazine-2,4-diamine, together with 1.0% DASH® EC adjuvant (BASF).
M3 seed, which were harvested from tilled and selected individuals containing mutations in the CESA1 and CESA3 genes, were grown in the greenhouse under natural light conditions supplemented with 400 W sodium halide lamps under a 16 hr day length. Day/night temperatures were 26 and 20° C., respectively. The number of M3 plants from each line varied between 2 and 16, depending on seed availability and germination. A non-selective CBI, azine 6-(1-fluorocyclopentyl)-N2-(2,3,5,6-tetrafluorophenyl)-1,3,5-triazine-2,4-diamine, formulated with 1.0% DASH in a water volume of 375 L/ha was applied early post-emergent (one to two leaf stage) at a rate of 250 g ai/ha to M3 CESA1 and CESA3 mutant rice plants growing in soil in the greenhouse. Only plants originating from lines having more than four seeds were subjected to herbicide treatment. CESA mutant lines with four or fewer seeds were selfed for an additional generation and then tested at the M4 generation with 6-cyclopentyl-N4-(2,3,4,5,6-pentafluorophenyl)-1,3,5-triazine-2,4-diamine. M4 plants were grown under similar conditions as M3 plants and treated with 250 g ai/ha or 500 g ai/ha of 6-cyclopentyl-N4-(2,3,4,5,6-pentafluorophenyl)-1,3,5-triazine-2,4-diamine. […] Plants without any symptoms were recorded as “0%” injury. Increasing levels of reduced leaf mass and reduced stalk stiffness, with respect to the untreated control plants, were recorded in the range of “1 to 49%” injury. Increasing levels of leaf abnormalities and leaf necrosis, along with increased levels of lodging, relative to the untreated control plants, were recorded in the range of “50 to 85%” injury. Dead or dying plants with necrosis of the apex and severe lodging were recorded between “86-100%”. Data on individual plants was assessed and recorded due to the low number of individuals per line and the fact that the CESA mutations in the M2 generation were heterozygous and therefore segregating at the M3 and M4 generations. […]

[2] = system: Rice M4 CESA1 and CESA3 mutants; experiment: Greenhouse foliar application, crop injury on tilled Rice M4 generation cellulose synthase mutants (Table E10-2); format: in vivo, Oryza sativa
From the text: as §1
M3 seed, which were harvested from tilled and selected individuals containing mutations in the CESA1 and CESA3 genes, were grown in the greenhouse under natural light conditions supplemented with 400 W sodium halide lamps under a 16 hr day length. Day/night temperatures were 26 and 20° C., respectively. The number of M3 plants from each line varied between 2 and 16, depending on seed availability and germination. A non-selective CBI, azine 6-(1-fluorocyclopentyl)-N2-(2,3,5,6-tetrafluorophenyl)-1,3,5-triazine-2,4-diamine, formulated with 1.0% DASH in a water volume of 375 L/ha was applied early post-emergent (one to two leaf stage) at a rate of 250 g ai/ha to M3 CESA1 and CESA3 mutant rice plants growing in soil in the greenhouse. Only plants originating from lines having more than four seeds were subjected to herbicide treatment. CESA mutant lines with four or fewer seeds were selfed for an additional generation and then tested at the M4 generation with 6-cyclopentyl-N4-(2,3,4,5,6-pentafluorophenyl)-1,3,5-triazine-2,4-diamine. M4 plants were grown under similar conditions as M3 plants and treated with 250 g ai/ha or 500 g ai/ha of 6-cyclopentyl-N4-(2,3,4,5,6-pentafluorophenyl)-1,3,5-triazine-2,4-diamine. Previous kill curve greenhouse tests had identified that a rate of 250 g ai/ha of 6-(1-fluorocyclopentyl)-N2-(2,3,5,6-tetrafluorophenyl)-1,3,5-triazine-2,4-diamine and a rate of 250 g ai/ha 6-cyclopentyl-N4-(2,3,4,5,6-pentafluorophenyl)-1,3,5-triazine-2,4-diamine, both with 1.0% DASH, were sufficient doses to kill O. sativa M2 Volano check plants. […] Plants were assessed for crop injury, using a scale from 0% injury to 100% injury, at 11 and 21 days after treatment (DAT) for M3 plants applied with 6-(1-fluorocyclopentyl)-N2-(2,3,5,6-tetrafluorophenyl)-1,3,5-triazine-2,4-diamine and 36 DAT for M4 plants applied with 6-cyclopentyl-N4-(2,3,4,5,6-pentafluorophenyl)-1,3,5-triazine-2,4-diamine. Plants without any symptoms were recorded as “0%” injury. Increasing levels of reduced leaf mass and reduced stalk stiffness, with respect to the untreated control plants, were recorded in the range of “1 to 49%” injury. Increasing levels of leaf abnormalities and leaf necrosis, along with increased levels of lodging, relative to the untreated control plants, were recorded in the range of “50 to 85%” injury. Dead or dying plants with necrosis of the apex and severe lodging were recorded between “86-100%”. Data on individual plants was assessed and recorded due to the low number of individuals per line and the fact that the CESA mutations in the M2 generation were heterozygous and therefore segregating at the M3 and M4 generations. […]

[3] = Rice M4 OsCesA1 S827N (SEQ ID 51), parental plant Hom, 250 g ai/ha
[4] = Rice M4 OsCesA1 T952I (SEQ ID 51), parental plant Het, 500 g ai/ha

Structure (SMILES)	Crop Injury Assessment (%) at 20 DAT ([1]; Rice M3 OsCESA1 A1066T (SEQ ID 51), parental plant Het)	Crop Injury Assessment (%) at 20 DAT ([1]; Rice M3 OsCESA1 S827N (SEQ ID 51), parental plant Het)	Crop Injury Assessment (%) at 20 DAT ([1]; Rice M3 OsCESA1 V9231 (SEQ ID 51), parental plant Het)	Crop Injury Assessment (%) at 20 DAT ([1]; Rice M3 OsCESA3 V1022L (SEQ ID 55), parental plant Hom)	Crop injury assessment (%) at 23 DAT [2, 3]	Crop injury assessment (%) at 36 DAT [2, 3]	Crop injury assessment (%) at 23 DAT ([2]; Rice M4 OsCesA1 T952I (SEQ ID 51), parental plant Het, 250 g ai/ha)	Crop injury assessment (%) at 23 DAT [2, 4]	Crop injury assessment (%) at 36 DAT [2, 4]
Nc1nc(Nc2c(F)c(F)cc(F)c2F)nc(C2(F)CCCC2)n1 [6-(1-fluorocyclopentyl)-N2-(2,3,5,6-tetrafluorophenyl)-1,3,5-triazine-2,4-diamine]	10%	0%	0%	20%	–	–	–	–	–
Nc1nc(Nc2c(F)c(F)c(F)c(F)c2F)nc(C2CCCC2)n1 [6-cyclopentyl-N4-(2,3,4,5,6-pentafluorophenyl)-1,3,5-triazine-2,4-diamine]	–	–	–	–	0%	0%	0%	10%	10%
